Test results reported in patent US11045455B2, “Azetidine derivative, preparation method therefor, and use thereof” (SICHUAN KELUN-BIOTECH BIOPHARMACEUTICAL CO., LTD., priority 2016, dated 2021).

Experiments:
[1] = Pharmacokinetic study in Rhesus monkeys, gavage (PO) administration; assay type: in vivo; conditions: male, rhesus monkey, plasma, PO administration at 1 mg/kg
Procedure: To study the pharmacokinetic characteristics of test compounds, the test compounds were administrated by a gavage (PO) route to male Rhesus monkeys. The dosage for PO administration was 1 mg/kg. Blood was collected at various time points after the PO administration. Plasma samples were analyzed by LC-MS/MS after protein precipitation process with acetonitrile. Pharmacokinetic parameters were calculated with a non-compartmental model by using WinNonlin 6.3 software.

TYK2 = TYK2 (Homo sapiens (Human), UniProt P29597); experiment: TYK2 enzymatic inhibition assay (LanthaScreen TR-FRET); assay type: biochemical
TYK2, sequence (P29597 whole entry): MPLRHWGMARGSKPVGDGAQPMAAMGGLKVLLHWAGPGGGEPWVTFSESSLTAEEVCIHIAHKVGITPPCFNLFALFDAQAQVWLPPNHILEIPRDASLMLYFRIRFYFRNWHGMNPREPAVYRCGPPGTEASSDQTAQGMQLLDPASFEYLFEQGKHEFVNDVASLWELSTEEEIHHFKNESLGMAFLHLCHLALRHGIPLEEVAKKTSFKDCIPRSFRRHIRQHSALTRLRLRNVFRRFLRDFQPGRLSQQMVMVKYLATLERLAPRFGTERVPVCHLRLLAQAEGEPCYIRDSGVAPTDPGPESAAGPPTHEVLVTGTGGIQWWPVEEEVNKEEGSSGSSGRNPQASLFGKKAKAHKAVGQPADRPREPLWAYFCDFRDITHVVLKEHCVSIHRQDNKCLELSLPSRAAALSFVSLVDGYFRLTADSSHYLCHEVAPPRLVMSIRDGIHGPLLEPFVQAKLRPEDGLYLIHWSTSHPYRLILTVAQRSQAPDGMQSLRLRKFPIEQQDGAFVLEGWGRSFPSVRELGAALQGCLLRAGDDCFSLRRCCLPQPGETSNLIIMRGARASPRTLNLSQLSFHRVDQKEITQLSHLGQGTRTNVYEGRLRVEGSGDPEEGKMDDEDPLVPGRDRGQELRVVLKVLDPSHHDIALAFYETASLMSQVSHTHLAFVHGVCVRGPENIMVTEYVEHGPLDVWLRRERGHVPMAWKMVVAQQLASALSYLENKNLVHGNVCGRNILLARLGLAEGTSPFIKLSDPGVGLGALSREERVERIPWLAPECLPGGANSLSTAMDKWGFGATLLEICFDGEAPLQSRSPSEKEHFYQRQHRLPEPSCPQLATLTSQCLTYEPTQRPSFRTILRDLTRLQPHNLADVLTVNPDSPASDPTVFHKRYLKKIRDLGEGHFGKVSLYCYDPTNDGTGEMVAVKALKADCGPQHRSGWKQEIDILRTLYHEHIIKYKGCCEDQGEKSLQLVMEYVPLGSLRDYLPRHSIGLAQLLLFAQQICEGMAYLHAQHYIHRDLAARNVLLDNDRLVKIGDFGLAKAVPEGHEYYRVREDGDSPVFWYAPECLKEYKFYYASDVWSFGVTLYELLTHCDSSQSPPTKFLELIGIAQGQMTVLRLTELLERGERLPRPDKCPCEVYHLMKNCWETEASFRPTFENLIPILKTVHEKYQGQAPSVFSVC
Procedure: (§1) Experimental Example 1: JAK1, JAK2, JAK3 and TYK2 Enzymatic Inhibition Assay
As for the TYK2 enzyme, Tb-anti-pSTAT1 was added, and incubation at room temperature was performed.

hERG potassium channel = hERG potassium channel (Homo sapiens (Human), UniProt Q12809); experiment: Predictor hERG Fluorescence Polarization Assay; assay type: binding; conditions: tested at 3, 10 and 30 μM
hERG potassium channel, sequence (Q12809 whole entry): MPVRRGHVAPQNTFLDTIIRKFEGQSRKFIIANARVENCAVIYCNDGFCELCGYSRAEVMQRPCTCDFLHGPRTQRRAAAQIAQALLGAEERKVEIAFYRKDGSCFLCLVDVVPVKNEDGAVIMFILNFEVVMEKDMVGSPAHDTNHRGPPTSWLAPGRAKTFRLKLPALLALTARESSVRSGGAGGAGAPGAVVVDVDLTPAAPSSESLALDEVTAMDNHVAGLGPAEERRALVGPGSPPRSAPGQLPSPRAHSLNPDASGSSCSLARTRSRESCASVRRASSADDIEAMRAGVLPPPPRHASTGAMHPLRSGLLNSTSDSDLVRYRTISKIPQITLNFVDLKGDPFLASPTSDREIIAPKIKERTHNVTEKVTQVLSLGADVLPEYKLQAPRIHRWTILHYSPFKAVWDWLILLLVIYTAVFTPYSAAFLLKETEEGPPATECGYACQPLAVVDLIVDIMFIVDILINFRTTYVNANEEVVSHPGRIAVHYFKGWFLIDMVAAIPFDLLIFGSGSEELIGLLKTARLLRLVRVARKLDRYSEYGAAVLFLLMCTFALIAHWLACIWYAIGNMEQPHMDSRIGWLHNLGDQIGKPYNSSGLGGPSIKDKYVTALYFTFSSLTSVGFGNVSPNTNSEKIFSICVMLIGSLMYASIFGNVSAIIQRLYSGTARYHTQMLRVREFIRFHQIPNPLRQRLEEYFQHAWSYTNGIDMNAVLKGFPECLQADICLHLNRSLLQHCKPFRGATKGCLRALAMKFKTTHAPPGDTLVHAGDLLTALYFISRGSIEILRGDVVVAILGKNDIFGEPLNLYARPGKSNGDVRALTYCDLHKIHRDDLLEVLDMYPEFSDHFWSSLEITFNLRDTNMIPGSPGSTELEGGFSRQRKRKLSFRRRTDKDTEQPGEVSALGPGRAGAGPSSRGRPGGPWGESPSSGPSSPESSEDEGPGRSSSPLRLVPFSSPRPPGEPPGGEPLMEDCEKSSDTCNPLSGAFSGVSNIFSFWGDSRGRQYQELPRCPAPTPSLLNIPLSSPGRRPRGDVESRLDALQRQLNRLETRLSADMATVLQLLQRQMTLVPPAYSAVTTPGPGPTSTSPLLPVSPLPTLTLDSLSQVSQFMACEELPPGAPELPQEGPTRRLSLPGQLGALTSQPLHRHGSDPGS
Procedure: Experimental Example 2: Safety Test
The effect of test compounds on hERG potassium channel were determined using Predictor™ hERG Fluorescence Polarization Assay at concentrations of 3, 10, and 30 μM.

[2] = Pharmacokinetic study in Rhesus monkeys, intravenous (IV) administration; assay type: in vivo; conditions: male, rhesus monkey, plasma, IV administration at 0.5 mg/kg
Procedure: To study the pharmacokinetic characteristics of test compounds, the test compounds were administrated by an intravenous (IV) route to male Rhesus monkeys. The dosage for IV administration was 0.5 mg/kg. Blood was collected at various time points after the IV administration. Plasma samples were analyzed by LC-MS/MS after protein precipitation process with acetonitrile. Pharmacokinetic parameters were calculated with a non-compartmental model by using WinNonlin 6.3 software.

[3] = Pharmacokinetic study in rats, intravenous (IV) administration; assay type: in vivo; conditions: male, SD, rat, plasma, IV administration at 1 mg/kg
Procedure: (§2) Experimental Example 3: Pharmacokinetic Studies
(§3) To study the pharmacokinetic characteristics of test compounds, the test compounds were administrated by intravenous (IV) and gavage (PO) routes to male SD rats. The dosage for IV administration was 1 mg/kg, and that for PO administration was 0.5-5 mg/kg. The vehicle is 10% DMSO: 10% solutol: 80% physiological saline, or 5% DMSO: 5% solutol: 90% physiological saline, or 10% DMSO: 60% PEG: 30% physiological saline. Blood was collected at various time points after administration. Plasma samples were analyzed by LC-MS/MS after protein precipitation process with acetonitrile.

JAK3 = JAK3 (Homo sapiens (Human), UniProt P52333); experiment: JAK3 enzymatic inhibition assay (ADP-Glo luminescence); assay type: biochemical
JAK3, sequence (P52333 whole entry): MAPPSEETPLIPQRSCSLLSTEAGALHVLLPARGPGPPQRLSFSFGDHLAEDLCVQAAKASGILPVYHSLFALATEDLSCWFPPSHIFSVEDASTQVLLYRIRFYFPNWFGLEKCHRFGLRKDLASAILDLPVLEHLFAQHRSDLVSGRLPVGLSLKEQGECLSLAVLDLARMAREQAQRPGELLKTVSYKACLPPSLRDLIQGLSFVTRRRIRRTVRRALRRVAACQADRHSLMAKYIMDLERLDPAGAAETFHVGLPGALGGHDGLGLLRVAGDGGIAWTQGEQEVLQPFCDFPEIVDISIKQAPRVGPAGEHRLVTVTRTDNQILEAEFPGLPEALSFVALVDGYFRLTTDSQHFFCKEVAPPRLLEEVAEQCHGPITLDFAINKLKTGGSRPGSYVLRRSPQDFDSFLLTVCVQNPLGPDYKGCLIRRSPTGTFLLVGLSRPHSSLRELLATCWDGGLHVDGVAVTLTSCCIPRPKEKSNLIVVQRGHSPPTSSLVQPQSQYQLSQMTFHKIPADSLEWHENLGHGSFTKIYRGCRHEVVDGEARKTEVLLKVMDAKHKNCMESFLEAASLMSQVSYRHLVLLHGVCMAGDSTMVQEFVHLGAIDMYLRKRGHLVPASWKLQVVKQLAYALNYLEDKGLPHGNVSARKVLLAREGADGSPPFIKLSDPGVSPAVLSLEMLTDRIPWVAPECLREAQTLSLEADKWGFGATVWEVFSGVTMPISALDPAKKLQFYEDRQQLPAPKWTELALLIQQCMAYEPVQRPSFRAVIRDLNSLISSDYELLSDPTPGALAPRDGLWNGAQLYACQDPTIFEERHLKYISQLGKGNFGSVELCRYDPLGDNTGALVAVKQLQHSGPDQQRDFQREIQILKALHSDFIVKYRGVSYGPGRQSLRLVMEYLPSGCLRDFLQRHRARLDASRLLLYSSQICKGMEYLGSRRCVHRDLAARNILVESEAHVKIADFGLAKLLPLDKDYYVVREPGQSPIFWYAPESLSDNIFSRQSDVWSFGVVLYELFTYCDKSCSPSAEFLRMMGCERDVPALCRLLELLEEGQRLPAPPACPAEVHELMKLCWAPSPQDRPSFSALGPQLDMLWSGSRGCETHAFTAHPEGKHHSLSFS
Source text: as §1

[4] = test system: Collagen-Induced Arthritis (CIA) Model in Rats; experiment: In vivo efficacy in collagen-induced arthritis (CIA) model in rats; set-up: species or system Lewis rats; Mean arthritis score: scale not given here
Procedure: Experimental Example 4: In Vivo Efficacy in Collagen-Induced Arthritis (CIA) Model in Rats
A mixed emulsion of bovine type II collagen and incomplete Freund's adjuvant 1:1 was injected at the back and the tail tip (3 sites) in Lewis rats. After 14 days, the paw thickness and paw volume of the rats were measured, and the arthritis development was scored. The day before the administration was set as DO, the animals were grouped based on paw volume, and the test compounds (vehicle: 5% DMSO+5% solutol) were gavage administered once a day for two weeks. The paw thickness and paw volume of the rats were measured, and the arthritis development was scored.

[5] = Pharmacokinetic study in rats, gavage (PO) administration; assay type: in vivo; conditions: male, SD, rat, plasma, po, gavage administration at 5 mg/kg, 0-24 h
Procedure: as §2, §3

[6] = D0 (day before administration), 10 mg/kg group
[7] = D11, 10 mg/kg gavage once a day
[8] = D15, 10 mg/kg gavage once a day

Compound: CCS(=O)(=O)N1CC(CC#N)(n2cc(-c3ccnc4[nH]ccc34)cn2)C1 [Compound 8, 2-(3-(4-(1H-pyrrolo[2,3-b]pyridin-4-yl)-1H-pyrazol-1-yl)-1-(ethylsulfonyl)azetidin-3-yl)acetonitrile]
- bioavailability [1]: 78.6%
- AUC(0-t) ([1]; 0-24 h): 2600 ng·h/mL
- half-life ([1]; read-out: T½ (converted)): 2.68 h
- IC50 (TYK2): 27.3 nM
- IC50 (hERG potassium channel): > 30000 nM
- half-life [2]: 5.29 h
- AUC(0-t) ([3]; 0-24 h): 2650 ng·h/mL
- half-life ([3]; read-out: T½ (converted)): 3.93 h
- IC50 (JAK3): 47.9 nM
- Mean arthritis score [4, 6]: 2.63
- Mean paw thickness (mm) [4, 6]: 7.18 mm
- Mean paw volume [4, 6]: 1.71 mL
- Mean arthritis score ([4]; D4, 10 mg/kg gavage once a day): 1.38
- Mean paw thickness (mm) ([4]; D4, 10 mg/kg gavage once a day): 6.04 mm
- Mean paw volume ([4]; D4, 10 mg/kg gavage once a day): 1.47 mL
- Mean arthritis score ([4]; D7, 10 mg/kg gavage once a day): 1.00
- Mean paw thickness (mm) ([4]; D7, 10 mg/kg gavage once a day): 5.67 mm
- Mean paw volume ([4]; D7, 10 mg/kg gavage once a day): 1.41 mL
- Mean arthritis score [4, 7]: 1.00
- Mean paw thickness (mm) [4, 7]: 5.56 mm
- Mean paw volume [4, 7]: 1.42 mL
- Mean arthritis score [4, 8]: 1.13
- Mean paw thickness (mm) [4, 8]: 5.52 mm
- Mean paw volume [4, 8]: 1.48 mL
- AUC(0-t) [5]: 14100 ng·h/mL
